From ChEMBL document CHEMBL5055633, “Amphipathic Barbiturates as Mimics of Antimicrobial Peptides and the Marine Natural Products Eusynstyelamides with Activity against Multi-resistant Clinical Isolates” (J Med Chem, 2021)
Calls of active or inactive are those of the source. The rule behind the calls is not given here.

Assays:
[1] = test system: Staphylococcus aureus; experiment: Antimicrobial activity against extended spectrum-lactamase-carbapenemas producing Staphylococcus aureus N315 assessed as reduction in bacterial growth incubated for 48 hrs by microdilution method; type: functional
[2] = Antimicrobial activity against oxacillinase-245 producing Klebsiella pneumoniae 50625602 assessed as reduction in bacterial growth incubated for 48 hrs by microdilution method; type: functional
[3] = test system: Escherichia coli; experiment: Antibacterial activity against in Escherichia coli HB101 assessed as decrease in bacterial viability at 3.1 ug/ml by cell viability assay; type: functional, organism-based; settings: dose 3.1 µg/ml
[4] = test system: Staphylococcus aureus; experiment: Antimicrobial activity against extended spectrum-lactamase-carbapenemas producing Staphylococcus aureus NCTC 10442 assessed as reduction in bacterial growth incubated for 48 hrs by microdilution method; type: functional
[5] = test system: Enterococcus faecium; experiment: Antimicrobial activity against extended spectrum-lactamase-carbapenemas producing Enterococcus faecium strain 50758899 assessed as reduction in bacterial growth incubated for 48 hrs by microdilution method; type: functional
[6] = test system: Escherichia coli; experiment: Membrano-lytic effect in Escherichia coli HB101 assessed as decrease in bacterial viability at 3.1 ug/ml by luciferase based real-time membrane integrity assay; type: functional, organism-based; settings: dose 3.1 µg/ml
[7] = test system: Staphylococcus aureus; experiment: Antimicrobial activity against extended spectrum-lactamase-carbapenemas producing Staphylococcus aureus strain IHT 99040 assessed as reduction in bacterial growth incubated for 48 hrs by microdilution method; type: functional
[8] = test system: Escherichia coli; experiment: Antimicrobial activity against verona integron-encoded metallo-beta-lactamase-29-producing Escherichia coli 50639799 assessed as reduction in bacterial growth incubated for 48 hrs by microdilution method; type: functional
[9] = test system: Streptococcus pneumoniae; experiment: Antibacterial activity against Klebsiella pneumoniae KP3010 infected in mouse peritonitis model assessed as reduction in colony forming unit at 1.4 mg/kg, ip relative to control; type: functional
[10] = test system: Acinetobacter baumannii; experiment: Antimicrobial activity against oxacillinase-24 producing Acinetobacter baumannii K55-13 assessed as reduction in bacterial growth incubated for 48 hrs by microdilution method; type: functional
[11] = test system: Escherichia coli; experiment: Membrano-lytic effect in Escherichia coli HB101 assessed as decrease in bacterial viability at 6.3 ug/ml by luciferase based real-time membrane integrity assay; type: functional, organism-based; settings: dose 6.3 µg/ml
[12] = test system: Escherichia coli; experiment: Antimicrobial activity against imipenem-type carbapenemase-26 producing Escherichia coli 50857972 assessed as reduction in bacterial growth incubated for 48 hrs by microdilution method; type: functional
[13] = test system: Acinetobacter baumannii; experiment: Antimicrobial activity against oxacillinase-58 producing Acinetobacter baumannii K12-21 assessed as reduction in bacterial growth incubated for 48 hrs by microdilution method; type: functional
[14] = Hemolytic activity in human erythrocytes incubated for 1 hr by microplate reader; type: functional, cell-based; settings: erythrocyte
[15] = test system: Escherichia coli; experiment: Antibacterial activity against Escherichia coli HB101 assessed as decrease in bacterial viability at 6.3 ug/ml by cell viability assay; type: functional, organism-based; settings: dose 6.3 µg/ml
[16] = test system: Acinetobacter baumannii; experiment: Antimicrobial activity against oxacillinase-23 producing Acinetobacter baumannii K63-58 assessed as reduction in bacterial growth incubated for 48 hrs by microdilution method; type: functional
[17] = test system: Acinetobacter baumannii; experiment: Antimicrobial activity against oxacillinase-23 producing Acinetobacter baumannii K47-42 assessed as reduction in bacterial growth incubated for 48 hrs by microdilution method; type: functional
[18] = test system: Escherichia coli; experiment: Antimicrobial activity against oxacillinase-producing Escherichia coli 50579417 assessed as reduction in bacterial growth incubated for 48 hrs by microdilution method; type: functional
[19] = test system: Staphylococcus aureus; experiment: Antimicrobial activity against extended spectrum-lactamase-carbapenemas producing Staphylococcus aureus strain 85/2082 assessed as reduction in bacterial growth incubated for 48 hrs by microdilution method; type: functional
[20] = Antimicrobial activity against New Delhi metallo-beta lactamase-1 and oxacillinase -181 producing Klebsiella pneumoniae 50531633 assessed as reduction in bacterial growth incubated for 48 hrs by microdilution method; type: functional
[21] = test system: MRC5; experiment: Cytotoxicity against human MRC5 cells assessed as reduction in cell viability incubated for 24 hrs by colorimetric tetrazolium assay; type: functional, cell-based; settings: MRC5, 24 h
[22] = test system: Escherichia coli; experiment: Antibacterial activity against Escherichia coli EC106-09 infected in mouse peritonitis model assessed as reduction in colony forming unit at 1.4 mg/kg, ip treatment repeated after 3 hrs relative to control; type: functional
[23] = test system: Staphylococcus aureus; experiment: Antimicrobial activity against extended spectrum-lactamase-carbapenemas producing Staphylococcus aureus strain WIS assessed as reduction in bacterial growth incubated for 48 hrs by microdilution method; type: functional
[24] = test system: Escherichia coli; experiment: Antibacterial activity against Escherichia coli EC106-09 infected in mouse peritonitis model assessed as reduction in colony forming unit at 1.4 mg/kg, ip relative to control; type: functional
[25] = test system: HepG2; experiment: Cytotoxicity against human HepG2 cells assessed as reduction in cell viability incubated for 24 hrs by colorimetric tetrazolium assay; type: functional, cell-based; settings: HepG2, 24 h
[26] = test system: Escherichia coli; experiment: Antimicrobial activity against New Delhi metallo-beta lactamase-1 producing Escherichia coli 50739822 assessed as reduction in bacterial growth incubated for 48 hrs by microdilution method; type: functional
[27] = test system: Staphylococcus aureus; experiment: Antimicrobial activity against Staphylococcus aureus ATCC 9144 assessed as reduction in bacterial growth incubated for 48 hrs by microdilution susceptibility test; type: functional
[28] = test system: Corynebacterium glutamicum; experiment: Antimicrobial activity against Corynebacterium glutamicum ATCC 13032 assessed as reduction in bacterial growth incubated for 48 hrs by microdilution susceptibility test; type: functional
[29] = test system: Acinetobacter baumannii; experiment: Antimicrobial activity against oxacillinase-23 producing Acinetobacter baumannii K44-35 assessed as reduction in bacterial growth incubated for 48 hrs by microdilution method; type: functional
[30] = test system: Enterococcus faecium; experiment: Antimicrobial activity against extended spectrum-lactamase-carbapenemas producing Enterococcus faecium strain 50901530 assessed as reduction in bacterial growth incubated for 48 hrs by microdilution method; type: functional
[31] = test system: Pseudomonas aeruginosa; experiment: Antimicrobial activity against verona integron-encoded metallo-beta-lactamase-4 producing Pseudomonas aeruginosa K34-73 assessed as reduction in bacterial growth incubated for 48 hrs by microdilution method; type: functional
[32] = test system: Streptococcus pneumoniae; experiment: Antibacterial activity against in […] 168 assessed as decrease in bacterial viability at 6.3 ug/ml by cell viability assay; type: functional, organism-based; settings: dose 6.3 µg/ml
[33] = Antimicrobial activity against New Delhi metallo-beta lactamase-1 Klebsiella pneumoniae K66-45 assessed as reduction in bacterial growth incubated for 48 hrs by microdilution method; type: functional
[34] = Toxicity in ip dosed mouse assessed as maximum tolerated dose; type: organism-based; settings: in vivo
[35] = test system: Pseudomonas aeruginosa; experiment: Antimicrobial activity against imipenem-type carbapenemase-14 producing Pseudomonas aeruginosa K44-24 assessed as reduction in bacterial growth incubated for 48 hrs by microdilution method; type: functional
[36] = test system: Mus musculus; experiment: Toxicity in mouse assessed as tolerability at 2.8 to 3.6 mg/kg, ip; type: organism-based; settings: in vivo, dose 2.8-3.6 mg/kg
[37] = test system: Pseudomonas aeruginosa; experiment: Antimicrobial activity against verona integron-encoded metallo-beta-lactamase-2 producing Pseudomonas aeruginosa K34-7 assessed as reduction in bacterial growth incubated for 48 hrs by microdilution method; type: functional
[38] = test system: Pseudomonas aeruginosa; experiment: Antimicrobial activity against Pseudomonas aeruginosa PAO1 assessed as reduction in bacterial growth incubated for 48 hrs by microdilution susceptibility test; type: functional
[39] = test system: Enterococcus faecium; experiment: Antimicrobial activity against extended spectrum-lactamase-carbapenemas producing Enterococcus faecium strain 50673722 assessed as reduction in bacterial growth incubated for 48 hrs by microdilution method; type: functional
[40] = test system: Escherichia coli; experiment: Antimicrobial activity against Escherichia coli ATCC 25922 assessed as reduction in bacterial growth incubated for 48 hrs by microdilution susceptibility test; type: functional
[41] = test system: Escherichia coli; experiment: Antimicrobial activity against New Delhi metallo-beta lactamase-1 producing Escherichia coli 50676002 assessed as reduction in bacterial growth incubated for 48 hrs by microdilution method; type: functional
[42] = Antimicrobial activity against verona integron-encoded metallo-beta-lactamase -1 producing Klebsiella pneumoniae 50667959 assessed as reduction in bacterial growth incubated for 48 hrs by microdilution method; type: functional
[43] = test system: Pseudomonas aeruginosa; experiment: Antimicrobial activity against verona integron-encoded metallo-beta-lactamase producing Pseudomonas aeruginosa 50692520 assessed as reduction in bacterial growth incubated for 48 hrs by microdilution method; type: functional
[44] = test system: Streptococcus pneumoniae; experiment: Antibacterial activity against in […] 168 assessed as decrease in bacterial viability at 3.1 ug/ml by cell viability assay; type: functional, organism-based; settings: dose 3.1 µg/ml
[45] = test system: Enterococcus faecium; experiment: Antimicrobial activity against extended spectrum-lactamase-carbapenemas producing Enterococcus faecium strain K36-18 assessed as reduction in bacterial growth incubated for 48 hrs by microdilution method; type: functional
[46] = test system: Pseudomonas aeruginosa; experiment: Antimicrobial activity against New Delhi metallo-beta lactamase-1 producing Pseudomonas aeruginosa 50692172 assessed as reduction in bacterial growth incubated for 48 hrs by microdilution method; type: functional
[47] = Antimicrobial activity against carbapenemase producing Klebsiella pneumoniae K47-25 assessed as reduction in bacterial growth incubated for 48 hrs by microdilution method; type: functional
[48] = test system: Streptococcus pneumoniae; experiment: Antibacterial activity against Klebsiella pneumoniae KP3010 infected in mouse peritonitis model assessed as reduction in colony forming unit at 1.4 mg/kg, ip treatment repeated after 3 hrs relative to control; type: functional
[49] = test system: Enterococcus faecium; experiment: Antimicrobial activity against extended spectrum-lactamase-carbapenemas producing Enterococcus faecium strain TUH.50-22 assessed as reduction in bacterial growth incubated for 48 hrs by microdilution method; type: functional

Compound: N=C(N)NCCCCN1C(=O)N(CCCCNC(=N)N)C(=O)C(Cc2cc(Br)cc(Br)c2)(Cc2cc(Br)cc(Br)c2)C1=O.O=C(O)C(F)(F)F.O=C(O)C(F)(F)F
- MIC [1]: 2 µg/mL
- MIC [2]: 4 µg/mL
- Activity [3]: Active
- MIC [4]: 2 µg/mL
- MIC [5]: 4 µg/mL
- Activity [6]: Active
- MIC [7]: 2 µg/mL
- MIC [8]: 4 µg/mL
- inhibition in vivo at 1.4 mg/kg [9]: 98%
- MIC [10]: 8 µg/mL
- Activity [11]: Active
- MIC [12]: 4 µg/mL
- MIC [13]: 4 µg/mL
- EC50 [14]: 62 µg/mL
- Activity [15]: Active
- MIC [16]: 4 µg/mL
- MIC [17]: 4 µg/mL
- MIC [18]: 4 µg/mL
- MIC [19]: 2 µg/mL
- MIC [20]: 4 µg/mL
- IC50 [21]: 11 µg/mL
- inhibition in vivo at 1.4 mg/kg [22]: 97%
- MIC [23]: 2 µg/mL
- inhibition in vivo at 1.4 mg/kg [24]: 90%
- IC50 [25]: 30 µg/mL
- MIC [26]: 4 µg/mL
- MIC [27]: 1 µg/mL
- MIC [28]: 0.25 µg/mL
- MIC [29]: 4 µg/mL
- MIC [30]: 2 µg/mL
- MIC [31]: 8 µg/mL
- Activity [32]: Active
- MIC [33]: 4 µg/mL
- MTD [34]: 7 mg/kg
- MIC [35]: 8 µg/mL
- Activity [36]: Non-Toxic
- MIC [37]: 8 µg/mL
- MIC [38]: 4 µg/mL
- MIC [39]: 4 µg/mL
- MIC [40]: 2 µg/mL
- MIC [41]: 4 µg/mL
- MIC [42]: 4 µg/mL
- MIC [43]: 16 µg/mL
- Activity [44]: Active
- MIC [45]: 4 µg/mL
- MIC [46]: 8 µg/mL
- MIC [47]: 4 µg/mL
- inhibition in vivo at 1.4 mg/kg [48]: 97%
- MIC [49]: 2 µg/mL

Compound: NCCCCN1C(=O)N(CCCCN)C(=O)C(Cc2cc(Br)cc(Br)c2)(Cc2cc(Br)cc(Br)c2)C1=O.O=C(O)C(F)(F)F.O=C(O)C(F)(F)F
- MIC [1]: 4 µg/mL
- MIC [2]: 16 µg/mL
- Activity [3]: Active
- MIC [4]: 4 µg/mL
- MIC [5]: 4 µg/mL
- Activity [6]: Active
- MIC [7]: 4 µg/mL
- MIC [8]: 8 µg/mL
- MIC [10]: 16 µg/mL
- Activity [11]: Active
- MIC [12]: 8 µg/mL
- MIC [13]: 16 µg/mL
- EC50 [14]: 79 µg/mL
- Activity [15]: Active
- MIC [16]: 16 µg/mL
- MIC [17]: 16 µg/mL
- MIC [18]: 8 µg/mL
- MIC [19]: 4 µg/mL
- MIC [20]: 8 µg/mL
- IC50 [21]: 2 µg/mL
- MIC [23]: 4 µg/mL
- IC50 [25]: 4 µg/mL
- MIC [26]: 8 µg/mL
- MIC [27]: 4 µg/mL
- MIC [28]: 1 µg/mL
- MIC [29]: 16 µg/mL
- MIC [30]: 4 µg/mL
- MIC [31]: 16 µg/mL
- Activity [32]: Active
- MIC [33]: 16 µg/mL
- MIC [35]: 16 µg/mL
- MIC [37]: 16 µg/mL
- MIC [38]: 8 µg/mL
- MIC [39]: 4 µg/mL
- MIC [40]: 4 µg/mL
- MIC [41]: 8 µg/mL
- MIC [42]: 16 µg/mL
- MIC [43]: 16 µg/mL
- Activity [44]: Active
- MIC [45]: 8 µg/mL
- MIC [46]: 16 µg/mL
- MIC [47]: 16 µg/mL
- MIC [49]: 4 µg/mL
